Laboratory results: ChEMBL document CHEMBL4396916, “Novel potent substituted 4-amino-2-thiopyrimidines as dual VEGFR-2 and BRAF kinase inhibitors” (Eur J Med Chem, 2019)

How the values were obtained:
[1] = molecular target: Vascular endothelial growth factor receptor 2 (Homo sapiens, UniProt P35968); assay: Inhibition of human N-terminal GST tagged VEGFR-2 expressed in baculovirus infected Sf9 cells using poly (Glu,Tyr) 4:1 as substrate in presence of ATP by Kinase-Glo luminescence assay
[2] = tested on: CCRF-CEM; assay: Growth inhibition of human CCRF-CEM cells at 10 uM incubated for 48 hrs by sulforhodamine B assay relative to control; assay type: functional; conditions: read-out: GI
[3] = tested on: HL-60(TB); assay: Growth inhibition of human HL-60(TB) cells at 10 uM incubated for 48 hrs by sulforhodamine B assay relative to control; assay type: functional; conditions: HL-60, 48 h, read-out: GI
[4] = tested on: K562; assay: Growth inhibition of human K562 cells at 10 uM incubated for 48 hrs by sulforhodamine B assay relative to control; assay type: functional; conditions: K562, 48 h, read-out: GI
[5] = tested on: MOLT-4; assay: Growth inhibition of human MOLT4 cells at 10 uM incubated for 48 hrs by sulforhodamine B assay relative to control; assay type: functional; conditions: MOLT-4, 48 h, read-out: GI
[6] = tested on: RPMI-8226; assay: Growth inhibition of human RPMI8226 cells at 10 uM incubated for 48 hrs by sulforhodamine B assay relative to control; assay type: functional; conditions: RPMI-8226, 48 h, read-out: GI
[7] = tested on: A549; assay: Growth inhibition of human A549/ATCC cells at 10 uM incubated for 48 hrs by sulforhodamine B assay relative to control; assay type: functional; conditions: A549, 48 h, read-out: GI
[8] = tested on: EKVX; assay: Growth inhibition of human EKVX cells at 10 uM incubated for 48 hrs by sulforhodamine B assay relative to control; assay type: functional; conditions: read-out: GI
[9] = tested on: HOP-62; assay: Growth inhibition of human HOP62 cells at 10 uM incubated for 48 hrs by sulforhodamine B assay relative to control; assay type: functional; conditions: HOP-62, 48 h, read-out: GI
[10] = tested on: NCI-H226; assay: Growth inhibition of human NCI-H226 cells at 10 uM incubated for 48 hrs by sulforhodamine B assay relative to control; assay type: functional; conditions: NCI-H226, 48 h, read-out: GI
[11] = tested on: NCI-H23; assay: Growth inhibition of human NCI-H23 cells at 10 uM incubated for 48 hrs by sulforhodamine B assay relative to control; assay type: functional; conditions: NCI-H23, 48 h, read-out: GI
[12] = tested on: NCI-H522; assay: Growth inhibition of human NCI-H522 cells at 10 uM incubated for 48 hrs by sulforhodamine B assay relative to control; assay type: functional; conditions: NCI-H522, 48 h, read-out: GI
[13] = tested on: HCT-116; assay: Growth inhibition of human HCT116 cells at 10 uM incubated for 48 hrs by sulforhodamine B assay relative to control; assay type: functional; conditions: HCT-116, 48 h, read-out: GI
[14] = tested on: SF-295; assay: Growth inhibition of human SF295 cells at 10 uM incubated for 48 hrs by sulforhodamine B assay relative to control; assay type: functional; conditions: SF-295, 48 h, read-out: GI
[15] = tested on: SNB-19; assay: Growth inhibition of human SNB19 cells at 10 uM incubated for 48 hrs by sulforhodamine B assay relative to control; assay type: functional; conditions: SNB-19, 48 h, read-out: GI
[16] = tested on: SNB-75; assay: Growth inhibition of human SNB75 cells at 10 uM incubated for 48 hrs by sulforhodamine B assay relative to control; assay type: functional; conditions: SNB-75, 48 h, read-out: GI
[17] = tested on: U-251; assay: Growth inhibition of human U251 cells at 10 uM incubated for 48 hrs by sulforhodamine B assay relative to control; assay type: functional; conditions: U-251, 48 h, read-out: GI
[18] = tested on: LOX IMVI; assay: Growth inhibition of human LOXIMVI cells at 10 uM incubated for 48 hrs by sulforhodamine B assay relative to control; assay type: functional; conditions: read-out: GI
[19] = tested on: SK-MEL-5; assay: Growth inhibition of human SK-MEL-5 cells at 10 uM incubated for 48 hrs by sulforhodamine B assay relative to control; assay type: functional; conditions: SK-MEL-5, 48 h, read-out: GI
[20] = tested on: UACC-62; assay: Growth inhibition of human UACC62 cells at 10 uM incubated for 48 hrs by sulforhodamine B assay relative to control; assay type: functional; conditions: UACC-62, 48 h, read-out: GI
[21] = tested on: IGROV-1; assay: Growth inhibition of human IGROV1 cells at 10 uM incubated for 48 hrs by sulforhodamine B assay relative to control; assay type: functional; conditions: IGROV-1, 48 h, read-out: GI
[22] = tested on: NCI/ADR-RES; assay: Growth inhibition of human NCI/ADR-RES cells at 10 uM incubated for 48 hrs by sulforhodamine B assay relative to control; assay type: functional; conditions: read-out: GI
[23] = tested on: SK-OV-3; assay: Growth inhibition of human SKOV3 cells at 10 uM incubated for 48 hrs by sulforhodamine B assay relative to control; assay type: functional; conditions: SK-OV-3, 48 h, read-out: GI
[24] = tested on: ACHN; assay: Growth inhibition of human ACHN cells at 10 uM incubated for 48 hrs by sulforhodamine B assay relative to control; assay type: functional; conditions: read-out: GI
[25] = tested on: CAKI-1; assay: Growth inhibition of human Caki1 cells at 10 uM incubated for 48 hrs by sulforhodamine B assay relative to control; assay type: functional; conditions: CAKI-1, 48 h, read-out: GI
[26] = tested on: RXF 393; assay: Growth inhibition of human RXF393 cells at 10 uM incubated for 48 hrs by sulforhodamine B assay relative to control; assay type: functional; conditions: RXF 393, 48 h, read-out: GI
[27] = tested on: SN12C; assay: Growth inhibition of human SN12C cells at 10 uM incubated for 48 hrs by sulforhodamine B assay relative to control; assay type: functional; conditions: read-out: GI
[28] = tested on: UO-31; assay: Growth inhibition of human UO31 cells at 10 uM incubated for 48 hrs by sulforhodamine B assay relative to control; assay type: functional; conditions: UO-31, 48 h, read-out: GI
[29] = tested on: PC-3; assay: Growth inhibition of human PC3 cells at 10 uM incubated for 48 hrs by sulforhodamine B assay relative to control; assay type: functional; conditions: PC-3, 48 h, read-out: GI
[30] = tested on: MCF7; assay: Growth inhibition of human MCF7 cells at 10 uM incubated for 48 hrs by sulforhodamine B assay relative to control; assay type: functional; conditions: MCF7, 48 h, read-out: GI
[31] = tested on: MDA-MB-231; assay: Growth inhibition of human MDA-MB-231 cells at 10 uM incubated for 48 hrs by sulforhodamine B assay relative to control; assay type: functional; conditions: MDA-MB-231, 48 h, read-out: GI
[32] = tested on: Hs-578T; assay: Growth inhibition of human Hs578T cells at 10 uM incubated for 48 hrs by sulforhodamine B assay relative to control; assay type: functional; conditions: read-out: GI
[33] = tested on: T47D; assay: Growth inhibition of human T47D cells at 10 uM incubated for 48 hrs by sulforhodamine B assay relative to control; assay type: functional; conditions: read-out: GI
[34] = tested on: MDA-MB-468; assay: Growth inhibition of human MDA-MB-468 cells at 10 uM incubated for 48 hrs by sulforhodamine B assay relative to control; assay type: functional; conditions: MDA-MB-468, 48 h, read-out: GI
[35] = tested on: MCF7; assay: Cytotoxicity against human MCF7 cells expressing VEGFR2 and wild type BRAF measured after 48 hrs by sulforhodamine B assay; assay type: functional, cell-based; conditions: MCF7, 48 h
[36] = tested on: T47D; assay: Cytotoxicity against human T47D cells expressing wild type BRAF measured after 48 hrs by sulforhodamine B assay; assay type: functional, cell-based
[37] = tested on: SF-268; assay: Growth inhibition of human SF268 cells at 10 uM incubated for 48 hrs by sulforhodamine B assay relative to control; assay type: functional; conditions: SF-268, 48 h, read-out: GI
[38] = tested on: SF-539; assay: Growth inhibition of human SF539 cells at 10 uM incubated for 48 hrs by sulforhodamine B assay relative to control; assay type: functional; conditions: SF-539, 48 h, read-out: GI
[39] = tested on: OVCAR-8; assay: Growth inhibition of human OVCAR8 cells at 10 uM incubated for 48 hrs by sulforhodamine B assay relative to control; assay type: functional; conditions: OVCAR-8, 48 h, read-out: GI
[40] = tested on: A498; assay: Growth inhibition of human A498 cells at 10 uM incubated for 48 hrs by sulforhodamine B assay relative to control; assay type: functional; conditions: A498, 48 h, read-out: GI

Vascular endothelial growth factor receptor 2, sequence (P35968 whole entry): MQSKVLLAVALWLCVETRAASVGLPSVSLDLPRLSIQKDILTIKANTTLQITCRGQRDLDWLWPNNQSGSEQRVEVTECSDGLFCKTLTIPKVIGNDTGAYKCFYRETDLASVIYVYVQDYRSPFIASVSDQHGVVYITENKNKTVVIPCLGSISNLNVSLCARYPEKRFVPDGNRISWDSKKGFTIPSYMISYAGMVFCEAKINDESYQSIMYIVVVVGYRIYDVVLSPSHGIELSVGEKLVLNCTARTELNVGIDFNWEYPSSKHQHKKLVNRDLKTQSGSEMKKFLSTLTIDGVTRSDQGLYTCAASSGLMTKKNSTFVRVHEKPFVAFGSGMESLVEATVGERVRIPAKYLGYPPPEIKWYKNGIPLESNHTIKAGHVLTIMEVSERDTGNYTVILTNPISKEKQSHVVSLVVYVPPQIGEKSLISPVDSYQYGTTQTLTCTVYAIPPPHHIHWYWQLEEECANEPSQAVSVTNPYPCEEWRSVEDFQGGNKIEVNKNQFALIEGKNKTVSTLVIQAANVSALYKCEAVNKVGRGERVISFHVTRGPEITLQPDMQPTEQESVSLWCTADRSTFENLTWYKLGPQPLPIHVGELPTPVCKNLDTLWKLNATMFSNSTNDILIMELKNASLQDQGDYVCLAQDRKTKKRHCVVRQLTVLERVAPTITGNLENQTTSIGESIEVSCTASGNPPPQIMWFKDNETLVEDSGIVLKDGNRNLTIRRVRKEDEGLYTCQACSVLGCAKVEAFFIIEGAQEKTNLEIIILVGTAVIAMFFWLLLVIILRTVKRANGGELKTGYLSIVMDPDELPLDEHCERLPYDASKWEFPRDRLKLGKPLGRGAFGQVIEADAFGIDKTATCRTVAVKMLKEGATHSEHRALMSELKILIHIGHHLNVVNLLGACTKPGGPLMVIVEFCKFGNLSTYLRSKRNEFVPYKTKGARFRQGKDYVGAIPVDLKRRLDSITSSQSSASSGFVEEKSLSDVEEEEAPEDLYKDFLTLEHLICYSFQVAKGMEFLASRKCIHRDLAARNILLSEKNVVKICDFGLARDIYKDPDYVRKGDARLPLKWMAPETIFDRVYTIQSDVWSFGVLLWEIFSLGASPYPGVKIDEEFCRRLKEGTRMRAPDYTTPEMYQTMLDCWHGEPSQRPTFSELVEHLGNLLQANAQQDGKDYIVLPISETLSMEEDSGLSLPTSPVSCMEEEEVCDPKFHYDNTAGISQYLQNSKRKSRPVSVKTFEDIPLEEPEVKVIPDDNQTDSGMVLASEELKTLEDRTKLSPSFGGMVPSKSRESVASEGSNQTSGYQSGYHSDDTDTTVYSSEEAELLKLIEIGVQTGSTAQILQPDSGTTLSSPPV

| Compound | IC50 [1] [µM] | inhibition of growth at 10 µM [2] [%] | inhibition of growth at 10 µM [4] [%] | inhibition of growth at 10 µM [6] [%] | inhibition of growth at 10 µM [8] [%] | inhibition of growth at 10 µM [9] [%] | inhibition of growth at 10 µM [10] [%] | inhibition of growth at 10 µM [11] [%] | inhibition of growth at 10 µM [12] [%] | inhibition of growth at 10 µM [15] [%] | inhibition of growth at 10 µM [16] [%] | inhibition of growth at 10 µM [20] [%] | inhibition of growth at 10 µM [21] [%] | inhibition of growth at 10 µM [24] [%] | inhibition of growth at 10 µM [25] [%] | inhibition of growth at 10 µM [28] [%] | inhibition of growth at 10 µM [29] [%] | inhibition of growth at 10 µM [31] [%] | inhibition of growth at 10 µM [34] [%] | IC50 [35] [µM] | further results |
| --- | --- | --- | --- | --- | --- | --- | --- | --- | --- | --- | --- | --- | --- | --- | --- | --- | --- | --- | --- | --- | --- |
| CC(=O)c1cccc(Nc2ccnc(SCC(=O)c3ccc(C(F)(F)F)cc3)n2)c1 | > 10 | 10 | 29 | 31 | 28 | 17 | 24 | 21 | 27 | 10 | 32 | 29 | 44 | 19 | 42 | 57 | 30 | 22 | 16 | 28.2 | inhibition of growth at 10 µM [3]: < 10%; inhibition of growth at 10 µM [5]: 24%; inhibition of growth at 10 µM [7]: 12%; inhibition of growth at 10 µM [13]: 28%; inhibition of growth at 10 µM [14]: 15%; inhibition of growth at 10 µM [17]: 12%; inhibition of growth at 10 µM [18]: 13%; inhibition of growth at 10 µM [19]: 14%; inhibition of growth at 10 µM [22]: 11%; inhibition of growth at 10 µM [23]: 21%; inhibition of growth at 10 µM [26]: 11%; inhibition of growth at 10 µM [27]: 17%; inhibition of growth at 10 µM [30]: 26%; inhibition of growth at 10 µM [32]: 11%; inhibition of growth at 10 µM [33]: 37%; IC50 [36]: 17.1 µM |
| O=C(CSc1nccc(Nc2ccc(N3CCOCC3)cc2)n1)c1ccc(Cl)cc1 | 1.9 | 13 | 10 | 10 | 10 | 37 | 13 | 19 | 22 | 19 | 36 | 10 | 17 | 10 | 23 | 26 | 12 | 10 | 19 | 73.3 | inhibition of growth at 10 µM [37]: 15%; inhibition of growth at 10 µM [38]: 15%; inhibition of growth at 10 µM [39]: 17%; inhibition of growth at 10 µM [40]: 13% |
